Experimental data: publication PMC5417072 (Anticancer research, 2016)

Biological target: SIRT2 (sirtuin-2) (Homo sapiens, UniProt Q8IXJ6)
Test: in vitro enzymatic assay
Assay type: biochemical

SIRT2 (sirtuin-2), sequence (Q8IXJ6 2-389): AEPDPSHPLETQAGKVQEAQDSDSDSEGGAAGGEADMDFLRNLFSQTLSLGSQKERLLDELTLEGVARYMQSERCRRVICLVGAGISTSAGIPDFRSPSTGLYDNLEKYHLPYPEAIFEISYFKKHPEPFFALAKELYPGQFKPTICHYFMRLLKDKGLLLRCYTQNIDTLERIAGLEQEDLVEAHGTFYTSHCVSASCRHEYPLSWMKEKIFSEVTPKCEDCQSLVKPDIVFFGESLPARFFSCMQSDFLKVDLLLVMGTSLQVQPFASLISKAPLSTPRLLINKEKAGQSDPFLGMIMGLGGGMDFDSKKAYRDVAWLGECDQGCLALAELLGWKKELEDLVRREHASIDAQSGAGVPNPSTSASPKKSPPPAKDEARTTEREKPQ

## COC(=O)[C@H](CCC(=O)Nc1cccc2c1ccn2Cc1cccc(C(N)=O)c1)NC(=O)OCc1ccccc1 [compound 6, (S)-Methyl 2-(((benzyloxy)carbonyl)amino)-5-((1-(3-carbamo-ylbenzyl)-1H-indol-4-yl)amino)-5-oxopentanoate]
  IC50: 33 µM
